Assays:
[1] = target: T1, holocarboxylase synthetase (HLCS) (Homo sapiens, UniProt P50747); assay: Competition studies with biotin; type: biochemical; settings: for Mechanism of HLCS inhibition: competition studies with biotin; for apparent Vmax with inhibitor: 250 μM inhibitor, biotin varied 0-320 μM, n=4
T1 sequence (P50747 1-726): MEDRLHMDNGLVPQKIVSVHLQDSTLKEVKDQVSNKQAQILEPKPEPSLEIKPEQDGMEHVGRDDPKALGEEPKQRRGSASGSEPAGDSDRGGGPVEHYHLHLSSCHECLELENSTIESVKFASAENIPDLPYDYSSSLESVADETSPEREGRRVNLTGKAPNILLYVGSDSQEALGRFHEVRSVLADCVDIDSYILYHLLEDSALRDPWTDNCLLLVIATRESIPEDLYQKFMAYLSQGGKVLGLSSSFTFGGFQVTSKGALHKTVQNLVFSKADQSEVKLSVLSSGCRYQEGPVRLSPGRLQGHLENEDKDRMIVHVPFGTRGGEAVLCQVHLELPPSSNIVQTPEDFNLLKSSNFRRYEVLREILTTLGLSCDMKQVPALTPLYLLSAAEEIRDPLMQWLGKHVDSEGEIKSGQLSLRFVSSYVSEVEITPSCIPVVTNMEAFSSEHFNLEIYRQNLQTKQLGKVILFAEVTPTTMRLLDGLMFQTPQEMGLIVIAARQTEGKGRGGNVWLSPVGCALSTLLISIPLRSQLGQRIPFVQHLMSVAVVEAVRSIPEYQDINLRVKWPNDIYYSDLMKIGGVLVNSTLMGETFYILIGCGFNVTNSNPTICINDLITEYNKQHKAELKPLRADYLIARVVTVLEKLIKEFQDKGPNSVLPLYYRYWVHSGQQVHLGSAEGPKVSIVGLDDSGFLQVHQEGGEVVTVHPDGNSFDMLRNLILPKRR

[2] = target: T1, holocarboxylase synthetase (HLCS); assay: Inhibition of HLCS-catalysed biotinylation of recombinant p67; type: biochemical; settings: data not shown

Compound: Nc1ncnc2c1ncn2[C@@H]1O[C@H](COP(=O)(O)OCCCCC[C@@H]2SC[C@@H]3NC(=O)N[C@@H]32)[C@@H](O)[C@H]1O [biotinol-5'-AMP, biotinol-5′-AMP, reference compound]
- Mechanism of HLCS inhibition [1]: mixed
- Mechanism of HLCS inhibition ([1]; listed as Biotinol-AMP): mixed inhibitor

Compound: N.Nc1ncnc2c1ncn2[C@@H]1O[C@H](COP(=O)(O)CC(O)CCCC[C@@H]2SC[C@@H]3NC(=O)N[C@@H]32)[C@@H](O)[C@H]1O (stereo partly drawn) [β-hydroxyP, biotin β-hydroxyphosphonate-5′-AMP]
- apparent Vmax with inhibitor [1]: 20.6±1.8 pmol biotinylated p67/(nmol HLCS x s)
- Mechanism of HLCS inhibition [1]: competitive
- Mechanism of HLCS inhibition ([1]; listed as β-HydroxyP): competitive inhibitor

Compound: COP(=O)(O)CC(=O)CCCC[C@@H]1SC[C@@H]2NC(=O)N[C@@H]21 [compound 3]
- HLCS inhibition (negative control, in words) [2]: did not inhibit HLCS

Compound: N.Nc1ncnc2c1ncn2[C@@H]1O[C@H](COP(=O)(O)CC(=O)CCCC[C@@H]2SC[C@@H]3NC(=O)N[C@@H]32)[C@@H](O)[C@H]1O [β-ketoP, biotin β-ketophosphonate-5′-AMP]
- apparent Vmax with inhibitor [1]: 31.5±1.6 pmol biotinylated p67/(nmol HLCS x s)
- Mechanism of HLCS inhibition [1]: competitive
- Mechanism of HLCS inhibition ([1]; listed as β-KetoP): competitive inhibitor
